Source: PubChem BioAssay (NCI)
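Protocol summary: plate cells (96-well), add compound at 5 concentrations, incubate 48 h, interpolate endpoints linearly. TGI: concentration producing complete growth inhibition.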

Legend:
Assay in all cases: inhibition of tumour cell growth, NCI panel, 48 h
SNB-75 CNS = tested on: SNB-75 CNS
UACC-62 melanoma = tested on: UACC-62 melanoma
UACC-257 melanoma = tested on: UACC-257 melanoma
COLO 205 colon = tested on: COLO 205 colon
HOP-92 NSCLC = tested on: HOP-92 NSCLC
MOLT-4 leukemia = tested on: MOLT-4 leukemia
DLD-1 colon = tested on: DLD-1 colon
SN12C renal = tested on: SN12C renal
EKVX NSCLC = tested on: EKVX NSCLC
CCRF-CEM leukemia = tested on: CCRF-CEM leukemia
OVCAR-5 ovarian = tested on: OVCAR-5 ovarian
DMS 273 small cell lung = tested on: DMS 273 small cell lung
NCI-H460 lung = tested on: NCI-H460 lung
SF-268 CNS = tested on: SF-268 CNS
HT29 colon = tested on: HT29 colon
786-0 renal = tested on: 786-0 renal
SK-MEL-5 melanoma = tested on: SK-MEL-5 melanoma
NCI-H522 lung = tested on: NCI-H522 lung
SNB-78 CNS = tested on: SNB-78 CNS
SR leukemia = tested on: SR leukemia
OVCAR-4 ovarian = tested on: OVCAR-4 ovarian
HCT-116 colon = tested on: HCT-116 colon
OVCAR-8 ovarian = tested on: OVCAR-8 ovarian
A498 renal = tested on: A498 renal
HOP-62 NSCLC = tested on: HOP-62 NSCLC
LXFL 529 NSCLC = tested on: LXFL 529 NSCLC
RPMI-8226 leukemia = tested on: RPMI-8226 leukemia
HCT-15 colon = tested on: HCT-15 colon
KM20L2 colon = tested on: KM20L2 colon
HOP-18 NSCLC = tested on: HOP-18 NSCLC
K-562 leukemia = tested on: K-562 leukemia
M19-MEL melanoma = tested on: M19-MEL melanoma
SK-MEL-28 melanoma = tested on: SK-MEL-28 melanoma
SW-620 colon = tested on: SW-620 colon
SNB-19 CNS = tested on: SNB-19 CNS
LOX IMVI melanoma = tested on: LOX IMVI melanoma
NCI-H23 lung = tested on: NCI-H23 lung
SF-539 CNS = tested on: SF-539 CNS
IGROV1 ovarian = tested on: IGROV1 ovarian
KM12 colon = tested on: KM12 colon
DMS 114 small cell lung = tested on: DMS 114 small cell lung
NCI-H226 lung = tested on: NCI-H226 lung
SF-295 CNS = tested on: SF-295 CNS
U251 CNS = tested on: U251 CNS
RXF 393 renal = tested on: RXF 393 renal
ACHN renal = tested on: ACHN renal
HL-60(TB) leukemia = tested on: HL-60(TB) leukemia
A549 NSCLC = tested on: A549 NSCLC
M14 melanoma = tested on: M14 melanoma
TK-10 renal = tested on: TK-10 renal
OVCAR-3 ovarian = tested on: OVCAR-3 ovarian
MALME-3M melanoma = tested on: MALME-3M melanoma
SK-MEL-2 melanoma = tested on: SK-MEL-2 melanoma
UO-31 renal = tested on: UO-31 renal
SK-OV-3 ovarian = tested on: SK-OV-3 ovarian

Compound `Cn1nc(-c2cccc(-c3nn(C)c(=NCCO)s3)n2)sc1=NCCO` has a TGI (SNB-75 CNS) of over 100 µM, a TGI (UACC-62 melanoma) of over 100 µM and a TGI (UACC-257 melanoma) of over 100 µM. The TGI (COLO 205 colon) was over 100 µM, the TGI (HOP-92 NSCLC) was over 100 µM and the TGI (MOLT-4 leukemia) was over 100 µM. The TGI (DLD-1 colon) was over 100 µM, the TGI (SN12C renal) was over 100 µM and the TGI (EKVX NSCLC) was over 100 µM. The TGI (CCRF-CEM leukemia) was over 100 µM, the TGI (OVCAR-5 ovarian) was over 100 µM and the TGI (DMS 273 small cell lung) was over 100 µM. The TGI (NCI-H460 lung) was over 100 µM, the TGI (SF-268 CNS) was over 100 µM and the TGI (HT29 colon) was over 100 µM. It also gave a TGI (786-0 renal) of over 100 µM, a TGI (SK-MEL-5 melanoma) of over 100 µM and a TGI (NCI-H522 lung) of over 100 µM. The TGI (SNB-78 CNS) was over 100 µM, the TGI (SR leukemia) was over 100 µM and the TGI (OVCAR-4 ovarian) was over 100 µM. It also gave a TGI (HCT-116 colon) of over 100 µM, a TGI (OVCAR-8 ovarian) of over 100 µM and a TGI (A498 renal) of over 100 µM. For the same compound, the TGI (HOP-62 NSCLC) was over 100 µM, the TGI (LXFL 529 NSCLC) was over 100 µM and the TGI (RPMI-8226 leukemia) was over 100 µM. It also gave a TGI (HCT-15 colon) of over 100 µM, a TGI (KM20L2 colon) of over 100 µM and a TGI (HOP-18 NSCLC) of over 100 µM. The TGI (K-562 leukemia) was over 100 µM, the TGI (M19-MEL melanoma) was over 100 µM and the TGI (SK-MEL-28 melanoma) was over 100 µM. The TGI (SW-620 colon) was over 100 µM, the TGI (SNB-19 CNS) was over 100 µM and the TGI (LOX IMVI melanoma) was over 100 µM. The TGI (NCI-H23 lung) was over 100 µM, the TGI (SF-539 CNS) was over 100 µM and the TGI (IGROV1 ovarian) was over 100 µM. For the same compound, the TGI (KM12 colon) was over 100 µM, the TGI (DMS 114 small cell lung) was over 100 µM and the TGI (NCI-H226 lung) was over 100 µM. The TGI (SF-295 CNS) was over 100 µM, the TGI (U251 CNS) was over 100 µM and the TGI (RXF 393 renal) was over 100 µM. For the same compound, the TGI (ACHN renal) was over 100 µM, the TGI (HL-60(TB) leukemia) was over 100 µM and the TGI (A549 NSCLC) was over 100 µM. It also gave a TGI (M14 melanoma) of over 100 µM.

With `CN(C)CC/C(=N\Nc1ccc(Cl)cc1)c1ccccc1` the TGI (SNB-75 CNS) was 6.45 µM, the TGI (TK-10 renal) was 2.32 µM and the TGI (UACC-62 melanoma) was 2.07 µM. The TGI (UACC-257 melanoma) was 3.35 µM, the TGI (COLO 205 colon) was 3.27 µM and the TGI (MOLT-4 leukemia) was 10.2 µM. For the same compound, the TGI (DLD-1 colon) was 3.74 µM, the TGI (SN12C renal) was 4.13 µM and the TGI (EKVX NSCLC) was 4.35 µM. The TGI (CCRF-CEM leukemia) was 11.2 µM, the TGI (OVCAR-3 ovarian) was 3.15 µM and the TGI (OVCAR-5 ovarian) was 2.66 µM. It also gave a TGI (DMS 273 small cell lung) of 1.61 µM, a TGI (NCI-H460 lung) of 2.45 µM and a TGI (SF-268 CNS) of 3.67 µM. The TGI (HT29 colon) was 3 µM, the TGI (786-0 renal) was 3.88 µM and the TGI (SK-MEL-5 melanoma) was 3.27 µM. It also gave a TGI (NCI-H522 lung) of 3.78 µM, a TGI (SNB-78 CNS) of 5.13 µM and a TGI (SR leukemia) of 4.4 µM. For the same compound, the TGI (OVCAR-4 ovarian) was 7.05 µM, the TGI (HCT-116 colon) was 2.6 µM and the TGI (OVCAR-8 ovarian) was 11.5 µM. The TGI (MALME-3M melanoma) was 3.95 µM, the TGI (A498 renal) was 10.8 µM and the TGI (HOP-62 NSCLC) was 3.62 µM. It also gave a TGI (LXFL 529 NSCLC) of 0.373 µM, a TGI (RPMI-8226 leukemia) of 3.13 µM and a TGI (SK-MEL-2 melanoma) of 4.58 µM. The TGI (HCT-15 colon) was 1.23 µM, the TGI (KM20L2 colon) was 0.349 µM and the TGI (HOP-18 NSCLC) was 7.78 µM. For the same compound, the TGI (K-562 leukemia) was 1.03 µM, the TGI (M19-MEL melanoma) was 3.2 µM and the TGI (SK-MEL-28 melanoma) was 2.92 µM. The TGI (SW-620 colon) was 2.37 µM, the TGI (SNB-19 CNS) was 6.91 µM and the TGI (LOX IMVI melanoma) was 0.691 µM. For the same compound, the TGI (UO-31 renal) was 0.986 µM, the TGI (NCI-H23 lung) was 3.93 µM and the TGI (SF-539 CNS) was 3.65 µM. The TGI (IGROV1 ovarian) was 4.67 µM, the TGI (KM12 colon) was 2.93 µM and the TGI (DMS 114 small cell lung) was 4.45 µM. It also gave a TGI (SK-OV-3 ovarian) of 7.04 µM, a TGI (SF-295 CNS) of 1.25 µM and a TGI (U251 CNS) of 1.74 µM. The TGI (RXF 393 renal) was 10.3 µM, the TGI (ACHN renal) was 2.59 µM and the TGI (HL-60(TB) leukemia) was 2.17 µM. For the same compound, the TGI (A549 NSCLC) was 3.29 µM and the TGI (M14 melanoma) was 3.17 µM.
